In brackets after ≈: the same amount, converted by molar mass. Where no end group is shown, it is not given here.
Legend:
[1] = test system: L. pneumophilia serogroup 10; test: MIC/MBC in 96-well micro plaque, BYEα medium; assay type: cell-based
Experimental: (§1) Source of bacteria: The bacteria were isolated from drinking water of hospitals in Ticino, patient strains were obtained from the laboratory of microbiology at the CHUV.
(§2) MIC (minimal inhibitory concentration): MIC was measured with the help of a micro plaque with 96 wells, each containing 100 μl. The growth media were BYEα for L. pneumophilia and TSB for Mycobacterium and were containing a certain concentration of the peptide or antibiotic.
(§3) The media were then subjected to twofold dilutions (1 μl of bacterial suspension at a concentration of 5*10^8 CFU/ml diluted to 5*10^6 CFU/ml).
(§4) The L. pneumophilia culture was incubated at 35° C. and the results were read after 48 and 96 hours. The Mycobacterium culture was incubated at 30° C. for up to seven days.
(§5) MIC is the first well […].
(§6) MBC (minimal bactericidal concentration): 50 μl of the above suspensions were plated on solid media BCYEα or agar with blood. The L. pneumophilia culture was incubated at 35° C. for 48 hours and up to seven days for Mycobacterium.
(§7) The MBC value is the first plate without growth.

[2] = test system: L. pneumophilia serogroup 1; test: MIC/MBC in 96-well micro plaque, BYEα medium; assay type: cell-based
Experimental: as §1, §2, §3, §4, §5, §6, §7

E.coli ER2566 = details: ER2566, 2 h
Experimental: E.coli ER2566 was grown in LB medium to the exponential phase (A600=0.5-0.6) at 37° C. as above. The culture was centrifuged and resuspended in a same volume of 10 mM phosphate buffer pH=7.0, and E proteins, PHYTOFLOC (2 mg/ml), synthetic Flo (0.1 mg/ml to 2 mg/ml) carrier (buffer) or BSA (2 mg/ml) were added. After 2 hours incubation at 37° C., LB was added to the bacteria culture to obtain A600=0.1. All cultures were incubated at 37° C. at 200 rpm and the culture growth was followed through A600 measurements.
An exponential phase E.coli culture was centrifuged and incubated for 2 hrs at 37° C. in phosphate buffer alone (♦), or in phosphate buffer supplemented by the PHYTOFLOC extract (σ) or by synthetic Flo (ν) at a final concentration of 2 mg/ml. Bacteria were then diluted to A600=0.1 in LB growth medium and incubated at 37° C. under agitation. Optical density measurements were then recorded as indicated at 600 nm.
B. Exponentially growing E.coli culture was processed as indicated in (A) except that bacteria were incubated with different concentrations of synthetic Flo in mg/ml: 0 (ν), 0.1 (σ), 0.25 (O), 0.5 (Σ), 1 (λ) or 2 (B). BSA at 2 mg/ml was used as a non specific protein control (♦).

[3] = Coagulation test (glass bead suspension sedimentation); details: 20 μg/ml, glass beads
Experimental: The test was carried out in a 2 ml volume in a spectrophotometer cell (104QS/HELLMA). To evaluate the coagulation activity, 100 mg/ml suspension of 3.5-7 μm diameter glass beads (Sheriglass 5000, Potters-Ballotini) were diluted in 50 mM phosphate buffer, pH=7.0, to mimic turbid water. Stirring was kept continuously at 800 rpm and OD 500 nm was measured each second (LabVIEW sfotware/National Instruments Corporation) in a Perkin-Elmer 552 spectrophotometer. After 5 minutes of continuous stirring the compound to be tested was added to a final concentration of 20 μg/ml, and stirring was continued for 15 minutes. Active compounds were diluted before the test either in phosphate buffer 10 mM, pH=7.0 (E proteins, PHYTOFLOC and bacterially produced Flo) or in distilled water (synthetic Flo).
To quantify the flocculation efficiency a linear regression was performed on time points corresponding to four minutes before the addition of the flocculating preparation (basal sedimentation) and four minutes after the addition of the flocculating preparation (coagulation-mediated sedimentation). The difference between the coagulation-mediated and basal sedimentation was calculated by subtraction in OD per minutes and multiplied by 1000 (Δ slope).
To assess particle coagulation properties of Flo, a suspension of glass beads under continuous mixing was used to mimic turbid water. […]

| Compound | MBC ([1]; L. pneumophilia serogroup 10) [µg/mL] | MIC ([1]; L. pneumophilia serogroup 10, 35° C.) [µg/mL] | MBC [2] [µg/mL] | MIC [2] [µg/mL] | IC50 of antibacterial growth response (E.coli ER2566) | specific coagulation activity compared with PHYTOFLOC [3] |
| --- | --- | --- | --- | --- | --- | --- |
| O=C(O)c1cn(C2CC2)c2cc(N3CCNCC3)c(F)cc2c1=O [Ciprofloxacin] | 16 to 30 (≈ 48.3 to 90.5 µM) | 16 (≈ 48.3 µM) | 30 to 60 (≈ 90.5 to 181 µM) | 30 (≈ 90.5 µM) | – | – |
| QGPGRQPDFQRCGQQLRNISPPQRCPSLRQAVQLTHQQQGQVGPQQVRQMYRVASNIPST (cysteines drawn unpaired) [synthetic Flo] | – | – | – | – | approximately 100 μg/ml | higher |
